Results from ChEMBL document CHEMBL3046358, “Multiple Pro-197 substitutions in the acetolactate synthase of rigid ryegrass (Lolium rigidum) and their impact on chlorsulfuron activity and plant growth” (Crop Prot, 2012).

How the values were obtained:
[1] = molecular target: T1, Acetolactate synthase (Lolium rigidum) (UniProt A7XBP7); assay: Resistance index, ratio of I50 for acetolactate synthase Leu-197/Leu-197 mutant in Lolium rigidum accession A08 leaves extracts to I50 for acetolactate synthase in Lolium rigidum accession A01 leaves extracts
T1 sequence (whole entry): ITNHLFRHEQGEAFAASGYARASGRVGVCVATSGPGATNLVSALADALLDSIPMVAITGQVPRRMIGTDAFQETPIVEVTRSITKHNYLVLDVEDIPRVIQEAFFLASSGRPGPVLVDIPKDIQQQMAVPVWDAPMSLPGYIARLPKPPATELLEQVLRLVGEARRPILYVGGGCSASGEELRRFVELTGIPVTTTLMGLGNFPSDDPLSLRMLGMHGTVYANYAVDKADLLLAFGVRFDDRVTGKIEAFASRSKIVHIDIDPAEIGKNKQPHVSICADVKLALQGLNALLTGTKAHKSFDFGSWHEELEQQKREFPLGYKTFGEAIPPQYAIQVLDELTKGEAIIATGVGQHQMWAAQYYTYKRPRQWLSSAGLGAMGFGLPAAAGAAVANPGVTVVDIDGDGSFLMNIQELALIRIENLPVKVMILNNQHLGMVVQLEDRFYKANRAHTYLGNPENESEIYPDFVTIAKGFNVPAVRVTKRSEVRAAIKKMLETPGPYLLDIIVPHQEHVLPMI

Lolium rigidum [2] = assay: Herbicidal activity against Lolium rigidum accession A13 assessed as emergence rate applied at 1 times pre-emergence recommended rate applied in pots where terbufos had been incorporated into the soil relative to untreated control; type: functional
Lolium rigidum [3] = assay: Herbicidal activity against Lolium rigidum accession A06 assessed as fresh weight reduction applied at 4 times pre-emergence recommended rate relative to untreated control; type: functional; set-up: scale not given: the % may be the effect or the level left
[4] = molecular target: T1, Acetolactate synthase (Lolium rigidum); assay: Resistance index, ratio of I50 for acetolactate synthase Ala-197/Ala-197 mutant in Lolium rigidum accession A06 leaves extracts to I50 for acetolactate synthase in Lolium rigidum accession A01 leaves extracts
Acetolactate synthase [5] = molecular target: T2, Acetolactate synthase (Lolium rigidum, UniProt A7XBP7); assay: Inhibition of acetolactate synthase Pro-197/Pro-197 mutant in Lolium rigidum accession A11 leaves extracts by acetolactate production assay; conditions: read-out: I50
Lolium rigidum [6] = assay: Herbicidal activity against Lolium rigidum accession A12 assessed as fresh weight reduction applied at 4 times pre-emergence recommended rate relative to untreated control; type: functional; set-up: scale not given: the % may be the effect or the level left
Lolium rigidum [7] = assay: Herbicidal activity against Lolium rigidum accession A03 assessed as fresh weight reduction applied at 4 times pre-emergence recommended rate relative to untreated control; type: functional; set-up: scale not given: the % may be the effect or the level left
Lolium rigidum [8] = assay: Herbicidal activity against Lolium rigidum accession A09 assessed as emergence rate applied at 4 times pre-emergence recommended rate relative to untreated control; type: functional
Lolium rigidum [9] = assay: Herbicidal activity against Lolium rigidum accession A06 assessed as emergence rate applied at 1 times pre-emergence recommended rate relative to untreated control; type: functional
Lolium rigidum [10] = assay: Herbicidal activity against Lolium rigidum accession A08 assessed as emergence rate applied at 1 times pre-emergence recommended rate relative to untreated control; type: functional
Lolium rigidum [11] = assay: Herbicidal activity against Lolium rigidum accession A01 assessed as emergence rate applied at 1 times pre-emergence recommended rate relative to untreated control; type: functional
Acetolactate synthase [12] = molecular target: T2, Acetolactate synthase; assay: Inhibition of acetolactate synthase Leu-197/Leu-197 mutant in Lolium rigidum accession A18 leaves extracts by acetolactate production assay; conditions: read-out: I50
Lolium rigidum [13] = assay: Herbicidal activity against Lolium rigidum accession A07 assessed as fresh weight reduction applied at 1 times pre-emergence recommended rate applied in pots where terbufos had been incorporated into the soil relative to untreated control; type: functional; set-up: scale not given: the % may be the effect or the level left
Lolium rigidum [14] = assay: Herbicidal activity against Lolium rigidum accession A03 assessed as fresh weight reduction applied at 1 times pre-emergence recommended rate applied in pots where terbufos had been incorporated into the soil relative to untreated control; type: functional; set-up: scale not given: the % may be the effect or the level left
[15] = molecular target: T1, Acetolactate synthase (Lolium rigidum); assay: Resistance index, ratio of I50 for acetolactate synthase Pro-197/Arg-197 or Pro-197/Ser-197 or Pro/Val or Ala/Leu mutant in Lolium rigidum accession A17 leaves extracts to I50 for acetolactate synthase in Lolium rigidum accession A01 leaves extracts
[16] = molecular target: T1, Acetolactate synthase (Lolium rigidum); assay: Resistance index, ratio of I50 for acetolactate synthase Pro-197/Pro-197 mutant in Lolium rigidum accession A11 leaves extracts to I50 for acetolactate synthase in Lolium rigidum accession A01 leaves extracts
Lolium rigidum [17] = assay: Herbicidal activity against Lolium rigidum accession A11 assessed as emergence rate applied at 1 times pre-emergence recommended rate relative to untreated control; type: functional
Lolium rigidum [18] = assay: Herbicidal activity against Lolium rigidum accession A02 assessed as fresh weight reduction applied at 1 times pre-emergence recommended rate applied in pots where terbufos had been incorporated into the soil relative to untreated control; type: functional; set-up: scale not given: the % may be the effect or the level left
Lolium rigidum [19] = assay: Herbicidal activity against Lolium rigidum accession A13 assessed as emergence rate applied at 1 times pre-emergence recommended rate relative to untreated control; type: functional
Lolium rigidum [20] = assay: Herbicidal activity against Lolium rigidum accession A15 assessed as fresh weight reduction applied at 1 times pre-emergence recommended rate relative to untreated control; type: functional; set-up: scale not given: the % may be the effect or the level left
Acetolactate synthase [21] = molecular target: T2, Acetolactate synthase; assay: Inhibition of acetolactate synthase Pro-197/Pro-197 mutant in Lolium rigidum accession A09 leaves extracts by acetolactate production assay; conditions: read-out: I50
Lolium rigidum [22] = assay: Herbicidal activity against Lolium rigidum accession A07 assessed as emergence rate applied at 4 times pre-emergence recommended rate relative to untreated control; type: functional
Lolium rigidum [23] = assay: Herbicidal activity against Lolium rigidum accession A13 assessed as fresh weight reduction applied at 1 times pre-emergence recommended rate applied in pots where terbufos had been incorporated into the soil relative to untreated control; type: functional; set-up: scale not given: the % may be the effect or the level left
Lolium rigidum [24] = assay: Herbicidal activity against Lolium rigidum accession A03 assessed as emergence rate applied at 1 times pre-emergence recommended rate relative to untreated control; type: functional
Lolium rigidum [25] = assay: Herbicidal activity against Lolium rigidum accession A12 assessed as emergence rate applied at 1 times pre-emergence recommended rate applied in pots where terbufos had been incorporated into the soil relative to untreated control; type: functional
Lolium rigidum [26] = assay: Herbicidal activity against Lolium rigidum accession A11 assessed as fresh weight reduction applied at 1 times pre-emergence recommended rate relative to untreated control; type: functional; set-up: scale not given: the % may be the effect or the level left
Acetolactate synthase [27] = molecular target: T2, Acetolactate synthase; assay: Inhibition of acetolactate synthase Ala-197/Ala-197 mutant in Lolium rigidum accession A20 leaves extracts by acetolactate production assay; conditions: read-out: I50
Lolium rigidum [28] = assay: Herbicidal activity against Lolium rigidum accession A15 assessed as fresh weight reduction applied at 4 times pre-emergence recommended rate relative to untreated control; type: functional; set-up: scale not given: the % may be the effect or the level left
Acetolactate synthase [29] = molecular target: T2, Acetolactate synthase; assay: Inhibition of acetolactate synthase Ala-197/Ala-197 mutant in Lolium rigidum accession A05 leaves extracts by acetolactate production assay; conditions: read-out: I50
Lolium rigidum [30] = assay: Herbicidal activity against Lolium rigidum accession A12 assessed as emergence rate applied at 4 times pre-emergence recommended rate relative to untreated control; type: functional
Lolium rigidum [31] = assay: Herbicidal activity against Lolium rigidum accession A15 assessed as fresh weight reduction applied at 1 times pre-emergence recommended rate applied in pots where terbufos had been incorporated into the soil relative to untreated control; type: functional; set-up: scale not given: the % may be the effect or the level left
Lolium rigidum [32] = assay: Herbicidal activity against Lolium rigidum accession A10 assessed as emergence rate applied at 4 times pre-emergence recommended rate relative to untreated control; type: functional
[33] = molecular target: T1, Acetolactate synthase (Lolium rigidum); assay: Resistance index, ratio of I50 for acetolactate synthase Pro-197/Pro-197 mutant in Lolium rigidum accession A10 leaves extracts to I50 for acetolactate synthase in Lolium rigidum accession A01 leaves extracts
Acetolactate synthase [34] = molecular target: T2, Acetolactate synthase; assay: Inhibition of acetolactate synthase Leu-197/Leu-197 mutant in Lolium rigidum accession A08 leaves extracts by acetolactate production assay; conditions: read-out: I50

`COc1nc(C)nc(NC(=O)NS(=O)(=O)c2ccccc2Cl)n1` [CHLORSULFURON] gave a Ratio [1] of 564, an Activity (Lolium rigidum [2]) of 0% and an Activity (Lolium rigidum [3]) of 11%. For the same compound, the Ratio [4] was 470, the IC50 (Acetolactate synthase [5]) was 0.03 µM and the Activity (Lolium rigidum [6]) was 99%. The Activity (Lolium rigidum [7]) was 91%, the Activity (Lolium rigidum [8]) was 1% and the Activity (Lolium rigidum [9]) was 89%. For the same compound, the Activity (Lolium rigidum [10]) was 88%, the Activity (Lolium rigidum [11]) was 2% and the IC50 (Acetolactate synthase [12]) was 1.62 µM. The Activity (Lolium rigidum [13]) was 1%, the Activity (Lolium rigidum [14]) was 99% and the Ratio [15] was 29. For the same compound, the Ratio [16] was 1, the Activity (Lolium rigidum [17]) was 42% and the Activity (Lolium rigidum [18]) was 100%. For the same compound, the Activity (Lolium rigidum [19]) was 1%, the Activity (Lolium rigidum [20]) was 94% and the IC50 (Acetolactate synthase [21]) was 0.03 µM. For the same compound, the Activity (Lolium rigidum [22]) was 34%, the Activity (Lolium rigidum [23]) was 100% and the Activity (Lolium rigidum [24]) was 1%. For the same compound, the Activity (Lolium rigidum [25]) was 0%, the Activity (Lolium rigidum [26]) was 54% and the IC50 (Acetolactate synthase [27]) was 1.09 µM. The Activity (Lolium rigidum [28]) was 98%, the IC50 (Acetolactate synthase [29]) was 4.89 µM and the Activity (Lolium rigidum [30]) was 1%. The Activity (Lolium rigidum [31]) was 97%, the Activity (Lolium rigidum [32]) was 0% and the Ratio [33] was 1. For the same compound, the IC50 (Acetolactate synthase [34]) was 16.9 µM.
